Activity calls are given as the source filed them. For most assays here, no stated cut-off is given here; in the data, actives have a measured Kd and inactives only a lower limit.
How the values were obtained:
Adenosine kinase = Adenosine kinase (Homo sapiens, UniProt P55263)
[1] = molecular target: Adenylate kinase 2, mitochondrial (Homo sapiens, UniProt P54819)
[2] = molecular target: Mitotic checkpoint serine/threonine-protein kinase BUB1 (Homo sapiens, UniProt O43683)
[3] = molecular target: Calcium/calmodulin-dependent protein kinase type II subunit delta (Homo sapiens, UniProt Q13557)
Chain of Calcium/calmodulin-dependent protein kinase type II subunit delta (Q13557 whole entry): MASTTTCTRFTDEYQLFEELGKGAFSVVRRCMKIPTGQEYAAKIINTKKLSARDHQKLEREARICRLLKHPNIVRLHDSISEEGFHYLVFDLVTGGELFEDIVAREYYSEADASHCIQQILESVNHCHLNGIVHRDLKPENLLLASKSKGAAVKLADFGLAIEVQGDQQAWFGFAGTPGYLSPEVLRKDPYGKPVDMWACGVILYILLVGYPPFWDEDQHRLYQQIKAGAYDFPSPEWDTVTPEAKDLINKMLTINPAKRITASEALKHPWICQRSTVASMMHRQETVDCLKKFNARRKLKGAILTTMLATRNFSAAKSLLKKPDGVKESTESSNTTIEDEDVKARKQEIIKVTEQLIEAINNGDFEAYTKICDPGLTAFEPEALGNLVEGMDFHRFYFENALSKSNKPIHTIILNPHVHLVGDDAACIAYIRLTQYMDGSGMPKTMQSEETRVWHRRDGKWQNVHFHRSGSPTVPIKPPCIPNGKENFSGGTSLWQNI

[4] = molecular target: Cyclin-dependent kinase 3 (Homo sapiens, UniProt Q00526)
Chain of Cyclin-dependent kinase 3 (Q00526 whole entry): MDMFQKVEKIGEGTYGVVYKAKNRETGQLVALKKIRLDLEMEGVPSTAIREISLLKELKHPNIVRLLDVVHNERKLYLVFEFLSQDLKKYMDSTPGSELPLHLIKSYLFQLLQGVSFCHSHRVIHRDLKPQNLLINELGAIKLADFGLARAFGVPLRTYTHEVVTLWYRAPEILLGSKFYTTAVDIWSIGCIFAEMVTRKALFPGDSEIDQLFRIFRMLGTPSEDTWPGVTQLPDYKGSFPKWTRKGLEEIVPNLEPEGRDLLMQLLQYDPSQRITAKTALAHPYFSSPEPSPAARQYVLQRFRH

[5] = molecular target: Cyclin-dependent kinase 5 (Homo sapiens, UniProt Q00535)
Chain of Cyclin-dependent kinase 5 (Q00535 whole entry): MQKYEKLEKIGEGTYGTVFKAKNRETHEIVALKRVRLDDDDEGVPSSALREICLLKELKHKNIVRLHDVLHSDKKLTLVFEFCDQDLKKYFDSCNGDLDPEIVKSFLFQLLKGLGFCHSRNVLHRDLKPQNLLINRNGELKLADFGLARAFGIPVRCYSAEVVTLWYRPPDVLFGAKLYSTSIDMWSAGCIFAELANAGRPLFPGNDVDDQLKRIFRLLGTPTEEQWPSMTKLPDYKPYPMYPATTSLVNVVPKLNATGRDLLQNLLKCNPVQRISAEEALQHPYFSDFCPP

[6] = molecular target: Glycogen synthase kinase-3 alpha (Homo sapiens, UniProt P49840)
LIM domain kinase 1 = LIM domain kinase 1 (Homo sapiens, UniProt P53667)
Chain of LIM domain kinase 1 (P53667 whole entry, the tested form may be a part): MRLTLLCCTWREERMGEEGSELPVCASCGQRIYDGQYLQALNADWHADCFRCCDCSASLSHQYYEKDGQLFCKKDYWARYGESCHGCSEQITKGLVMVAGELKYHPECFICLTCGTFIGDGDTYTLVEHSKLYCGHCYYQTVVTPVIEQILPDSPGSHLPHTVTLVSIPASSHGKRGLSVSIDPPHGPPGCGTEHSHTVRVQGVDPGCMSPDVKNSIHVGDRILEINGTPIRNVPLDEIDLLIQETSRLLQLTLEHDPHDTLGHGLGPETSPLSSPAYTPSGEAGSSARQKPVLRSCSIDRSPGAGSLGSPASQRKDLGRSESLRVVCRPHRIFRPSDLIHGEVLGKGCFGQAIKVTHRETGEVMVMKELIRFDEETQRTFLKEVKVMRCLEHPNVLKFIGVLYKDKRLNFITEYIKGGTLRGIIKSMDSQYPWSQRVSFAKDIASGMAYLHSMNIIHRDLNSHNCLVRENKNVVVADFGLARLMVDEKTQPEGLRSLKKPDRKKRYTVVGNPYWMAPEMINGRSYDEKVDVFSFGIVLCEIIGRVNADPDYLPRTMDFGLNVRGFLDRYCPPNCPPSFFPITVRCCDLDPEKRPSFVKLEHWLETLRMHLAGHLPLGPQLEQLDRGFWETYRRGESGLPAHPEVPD

LIM domain kinase 2 = LIM domain kinase 2 (Homo sapiens, UniProt P53671)
Chain of LIM domain kinase 2 (P53671 whole entry, the tested form may be a part): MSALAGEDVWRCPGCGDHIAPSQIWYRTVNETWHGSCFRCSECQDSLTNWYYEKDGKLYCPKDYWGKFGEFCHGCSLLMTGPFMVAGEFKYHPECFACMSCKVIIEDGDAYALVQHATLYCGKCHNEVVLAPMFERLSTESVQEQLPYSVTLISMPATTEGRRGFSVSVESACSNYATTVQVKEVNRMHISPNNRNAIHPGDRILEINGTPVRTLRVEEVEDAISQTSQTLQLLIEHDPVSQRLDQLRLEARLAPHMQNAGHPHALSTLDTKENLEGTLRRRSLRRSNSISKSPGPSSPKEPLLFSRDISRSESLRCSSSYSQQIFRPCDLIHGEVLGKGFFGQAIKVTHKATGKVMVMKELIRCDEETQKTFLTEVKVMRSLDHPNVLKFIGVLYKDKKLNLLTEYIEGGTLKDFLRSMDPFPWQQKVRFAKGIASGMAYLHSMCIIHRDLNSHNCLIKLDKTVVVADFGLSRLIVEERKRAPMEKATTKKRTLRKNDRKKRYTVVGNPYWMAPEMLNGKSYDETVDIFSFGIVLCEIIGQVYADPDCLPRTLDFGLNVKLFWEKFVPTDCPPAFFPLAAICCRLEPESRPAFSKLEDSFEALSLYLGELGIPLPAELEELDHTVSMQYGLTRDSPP

[7] = molecular target: Serine/threonine-protein kinase PAK 4 (Homo sapiens, UniProt O96013)
Chain of Serine/threonine-protein kinase PAK 4 (O96013 whole entry): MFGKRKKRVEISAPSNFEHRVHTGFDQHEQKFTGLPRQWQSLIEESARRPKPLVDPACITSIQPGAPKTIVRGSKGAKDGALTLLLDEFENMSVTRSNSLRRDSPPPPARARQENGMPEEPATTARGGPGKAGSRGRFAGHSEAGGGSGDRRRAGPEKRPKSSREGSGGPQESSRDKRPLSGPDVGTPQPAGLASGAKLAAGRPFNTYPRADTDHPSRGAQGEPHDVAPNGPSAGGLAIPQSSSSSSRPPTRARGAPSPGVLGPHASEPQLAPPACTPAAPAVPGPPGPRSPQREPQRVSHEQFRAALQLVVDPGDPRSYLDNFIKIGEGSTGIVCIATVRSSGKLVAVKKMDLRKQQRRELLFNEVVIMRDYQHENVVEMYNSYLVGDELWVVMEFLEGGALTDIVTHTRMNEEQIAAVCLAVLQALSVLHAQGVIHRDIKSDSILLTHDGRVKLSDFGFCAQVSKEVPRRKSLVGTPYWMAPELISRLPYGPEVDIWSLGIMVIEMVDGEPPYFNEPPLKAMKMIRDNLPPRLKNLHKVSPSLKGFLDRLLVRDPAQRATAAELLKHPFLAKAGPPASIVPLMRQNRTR

[8] = molecular target: Serine/threonine-protein kinase SIK3 (Homo sapiens, UniProt Q9Y2K2)
Chain of Serine/threonine-protein kinase SIK3 (Q9Y2K2 whole entry): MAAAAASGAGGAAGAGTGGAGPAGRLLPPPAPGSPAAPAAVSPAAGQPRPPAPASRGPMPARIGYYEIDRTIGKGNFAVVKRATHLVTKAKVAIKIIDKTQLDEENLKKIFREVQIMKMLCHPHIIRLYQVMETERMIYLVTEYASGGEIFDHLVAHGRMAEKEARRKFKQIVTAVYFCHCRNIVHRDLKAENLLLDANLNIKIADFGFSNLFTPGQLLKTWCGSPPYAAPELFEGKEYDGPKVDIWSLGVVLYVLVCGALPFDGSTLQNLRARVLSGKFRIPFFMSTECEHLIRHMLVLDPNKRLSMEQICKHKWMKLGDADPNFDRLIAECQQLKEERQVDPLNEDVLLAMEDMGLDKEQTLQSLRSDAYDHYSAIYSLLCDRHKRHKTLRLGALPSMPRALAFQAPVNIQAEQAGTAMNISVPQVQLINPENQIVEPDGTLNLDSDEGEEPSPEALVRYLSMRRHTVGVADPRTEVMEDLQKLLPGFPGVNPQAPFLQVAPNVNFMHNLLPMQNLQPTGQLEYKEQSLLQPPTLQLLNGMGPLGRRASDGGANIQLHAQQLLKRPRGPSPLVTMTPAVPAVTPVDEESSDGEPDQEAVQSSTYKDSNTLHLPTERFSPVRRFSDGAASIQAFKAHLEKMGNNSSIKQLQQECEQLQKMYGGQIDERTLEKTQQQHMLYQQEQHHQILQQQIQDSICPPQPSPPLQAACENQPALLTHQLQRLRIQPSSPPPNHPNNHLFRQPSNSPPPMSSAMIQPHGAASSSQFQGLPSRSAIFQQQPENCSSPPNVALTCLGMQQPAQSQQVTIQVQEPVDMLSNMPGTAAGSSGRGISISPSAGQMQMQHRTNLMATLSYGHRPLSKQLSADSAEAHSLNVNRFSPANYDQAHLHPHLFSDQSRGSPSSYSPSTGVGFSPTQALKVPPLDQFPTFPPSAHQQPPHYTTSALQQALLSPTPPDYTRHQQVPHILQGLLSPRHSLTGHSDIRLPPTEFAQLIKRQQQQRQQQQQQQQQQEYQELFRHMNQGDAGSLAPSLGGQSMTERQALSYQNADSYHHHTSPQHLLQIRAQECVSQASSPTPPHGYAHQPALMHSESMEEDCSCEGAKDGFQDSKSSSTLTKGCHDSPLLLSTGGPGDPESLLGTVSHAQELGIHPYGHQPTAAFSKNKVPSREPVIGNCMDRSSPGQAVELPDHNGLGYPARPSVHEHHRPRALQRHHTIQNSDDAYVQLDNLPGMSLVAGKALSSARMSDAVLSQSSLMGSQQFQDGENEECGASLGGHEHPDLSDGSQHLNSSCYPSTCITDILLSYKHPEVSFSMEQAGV

[9] = molecular target: T1, Exosome RNA helicase MTR4 (Homo sapiens, UniProt P42285)
T1 sequence (P42285 whole entry): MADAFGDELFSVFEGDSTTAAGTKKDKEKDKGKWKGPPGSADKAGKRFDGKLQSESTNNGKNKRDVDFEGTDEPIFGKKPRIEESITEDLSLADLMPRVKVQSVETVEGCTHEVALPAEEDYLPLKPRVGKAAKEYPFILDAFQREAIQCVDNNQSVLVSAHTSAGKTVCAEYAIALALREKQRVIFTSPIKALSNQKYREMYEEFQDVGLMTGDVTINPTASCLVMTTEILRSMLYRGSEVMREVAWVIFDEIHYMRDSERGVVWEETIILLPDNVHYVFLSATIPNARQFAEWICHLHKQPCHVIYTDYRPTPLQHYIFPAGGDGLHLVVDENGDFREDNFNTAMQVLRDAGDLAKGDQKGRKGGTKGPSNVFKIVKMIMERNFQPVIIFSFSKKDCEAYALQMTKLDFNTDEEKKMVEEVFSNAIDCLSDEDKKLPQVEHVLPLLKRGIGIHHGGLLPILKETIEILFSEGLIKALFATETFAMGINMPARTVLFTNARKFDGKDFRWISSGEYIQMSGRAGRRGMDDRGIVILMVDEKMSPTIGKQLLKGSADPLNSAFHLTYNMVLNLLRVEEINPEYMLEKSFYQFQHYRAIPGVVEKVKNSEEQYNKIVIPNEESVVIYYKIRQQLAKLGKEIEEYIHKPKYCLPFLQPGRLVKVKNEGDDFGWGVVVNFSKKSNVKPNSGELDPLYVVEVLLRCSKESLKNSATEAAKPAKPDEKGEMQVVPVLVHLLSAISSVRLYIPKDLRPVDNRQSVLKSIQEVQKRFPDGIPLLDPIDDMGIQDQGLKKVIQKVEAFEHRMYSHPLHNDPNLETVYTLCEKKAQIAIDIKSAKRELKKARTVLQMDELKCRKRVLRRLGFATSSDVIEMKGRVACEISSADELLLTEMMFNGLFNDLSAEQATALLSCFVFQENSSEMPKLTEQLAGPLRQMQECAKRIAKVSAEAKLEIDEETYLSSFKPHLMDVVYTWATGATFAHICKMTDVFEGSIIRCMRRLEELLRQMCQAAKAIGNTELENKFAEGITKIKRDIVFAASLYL

[10] = molecular target: Serine/threonine-protein kinase 16 (Homo sapiens, UniProt O75716)
Chain of Serine/threonine-protein kinase 16 (O75716 whole entry): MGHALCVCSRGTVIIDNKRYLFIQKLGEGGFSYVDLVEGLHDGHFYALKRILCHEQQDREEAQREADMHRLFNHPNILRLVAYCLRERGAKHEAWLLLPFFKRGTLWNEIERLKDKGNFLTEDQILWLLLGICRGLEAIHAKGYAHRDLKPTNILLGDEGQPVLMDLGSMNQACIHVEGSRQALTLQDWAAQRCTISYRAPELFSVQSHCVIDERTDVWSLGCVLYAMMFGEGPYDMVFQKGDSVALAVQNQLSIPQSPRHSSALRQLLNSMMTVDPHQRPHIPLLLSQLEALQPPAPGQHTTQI

[11] = molecular target: T2, Serine/threonine-protein kinase 3 (Homo sapiens, UniProt Q13188)
T2 sequence (Q13188 whole entry): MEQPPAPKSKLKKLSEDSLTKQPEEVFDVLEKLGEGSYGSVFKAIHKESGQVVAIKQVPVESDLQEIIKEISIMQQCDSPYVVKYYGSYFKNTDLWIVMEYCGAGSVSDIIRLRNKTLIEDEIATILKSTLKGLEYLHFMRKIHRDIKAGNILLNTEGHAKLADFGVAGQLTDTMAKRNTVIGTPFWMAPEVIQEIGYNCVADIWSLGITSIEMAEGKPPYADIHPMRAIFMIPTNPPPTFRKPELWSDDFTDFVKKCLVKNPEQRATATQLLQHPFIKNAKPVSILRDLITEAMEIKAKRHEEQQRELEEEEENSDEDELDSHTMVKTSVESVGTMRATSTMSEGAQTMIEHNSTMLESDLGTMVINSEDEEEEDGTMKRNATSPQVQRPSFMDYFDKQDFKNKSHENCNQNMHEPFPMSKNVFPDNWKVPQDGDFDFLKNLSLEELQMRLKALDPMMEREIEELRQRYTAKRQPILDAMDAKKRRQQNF

[12] = molecular target: T3, Serine/threonine-protein kinase Chk1 (Homo sapiens, UniProt O14757)
T3 sequence (O14757 whole entry): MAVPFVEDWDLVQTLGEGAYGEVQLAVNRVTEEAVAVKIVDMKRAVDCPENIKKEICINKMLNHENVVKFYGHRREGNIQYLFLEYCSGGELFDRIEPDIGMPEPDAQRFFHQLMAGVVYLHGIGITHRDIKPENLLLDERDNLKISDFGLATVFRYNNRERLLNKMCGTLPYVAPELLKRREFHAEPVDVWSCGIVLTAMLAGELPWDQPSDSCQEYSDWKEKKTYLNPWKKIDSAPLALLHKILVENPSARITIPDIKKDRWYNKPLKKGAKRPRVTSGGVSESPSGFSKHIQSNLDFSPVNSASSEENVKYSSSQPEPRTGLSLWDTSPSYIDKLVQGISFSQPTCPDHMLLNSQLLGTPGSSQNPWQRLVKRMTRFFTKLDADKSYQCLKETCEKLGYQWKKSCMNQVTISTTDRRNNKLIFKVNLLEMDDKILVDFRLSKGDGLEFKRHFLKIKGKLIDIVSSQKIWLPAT

Chain of Adenosine kinase (P55263 whole entry): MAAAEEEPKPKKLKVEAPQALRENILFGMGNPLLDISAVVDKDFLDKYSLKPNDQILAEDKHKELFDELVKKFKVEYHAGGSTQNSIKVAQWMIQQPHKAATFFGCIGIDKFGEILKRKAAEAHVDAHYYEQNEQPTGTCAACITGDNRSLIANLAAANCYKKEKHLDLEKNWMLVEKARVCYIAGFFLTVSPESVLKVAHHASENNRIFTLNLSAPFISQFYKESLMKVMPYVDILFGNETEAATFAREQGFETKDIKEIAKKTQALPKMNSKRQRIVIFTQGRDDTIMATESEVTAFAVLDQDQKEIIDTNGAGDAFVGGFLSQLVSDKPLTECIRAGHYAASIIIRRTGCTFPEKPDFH

Compound	Kd (Adenosine kinase)	Kd [1]	Kd [2]	Kd [3]	Kd [4]	Kd [5]	Kd [6]	Kd (LIM domain kinase 1)	Kd (LIM domain kinase 2)	Kd [7]	Kd [8]	Kd [9]	Kd [10]	Kd [11]	Kd [12]
Cn1cc(-c2[nH]c3cc(NC(=O)[C@H](N)C4CCCCC4)cc4c3c2C=NNC4=O)cn1	> 30 µM (inactive)	> 30 µM (inactive)	> 30 µM (inactive)	> 30 µM (inactive)	> 30 µM (inactive)	> 30 µM (inactive)	> 30 µM (inactive)	0.133 µM (active)	0.205 µM (active)	0.053 µM (active)	0.386 µM (active)	> 30 µM (inactive)	> 30 µM (inactive)	> 30 µM (inactive)	–
CCN1CCN(Cc2ccc(Nc3ncc(F)c(-c4cc(F)c5nc(C)n(C(C)C)c5c4)n3)nc2)CC1 [ABEMACICLIB]	> 30 µM (inactive)	> 30 µM (inactive)	> 30 µM (inactive)	0.019 µM (active)	–	–	0.013 µM (active)	> 30 µM (inactive)	> 30 µM (inactive)	> 30 µM (inactive)	> 30 µM (inactive)	> 30 µM (inactive)	0.495 µM (active)	> 30 µM (inactive)	> 30 µM (inactive)
C=CCn1c(=O)c2cnc(Nc3ccc(N4CCN(C)CC4)cc3)nc2n1-c1cccc(C(C)(C)O)n1 [ADAVOSERTIB]	0.013 µM (active)	> 30 µM (inactive)	> 30 µM (inactive)	> 30 µM (inactive)	> 30 µM (inactive)	–	–	–	> 30 µM (inactive)	–	> 30 µM (inactive)	> 30 µM (inactive)	> 30 µM (inactive)	–	–
CN(C)C/C=C/C(=O)Nc1cc2c(Nc3ccc(F)c(Cl)c3)ncnc2cc1O[C@H]1CCOC1 [AFATINIB]	3.49 µM (active)	> 30 µM (inactive)	> 30 µM (inactive)	–	–	–	–	–	–	–	–	> 30 µM (inactive)	–	–	–
CCN(CCCOc1ccc2c(Nc3cc(CC(=O)Nc4cccc(F)c4)n[nH]3)ncnc2c1)CCOP(=O)(O)O [BARASERTIB]	> 30 µM (inactive)	> 30 µM (inactive)	–	> 30 µM (inactive)	> 30 µM (inactive)	–	–	–	> 30 µM (inactive)	–	> 30 µM (inactive)	> 30 µM (inactive)	> 30 µM (inactive)	–	–
C[C@@]1(C(=O)Nc2ccc(F)nc2)CCCN1c1nc(Nc2cc(C3CC3)n[nH]2)c2cccn2n1 [BMS-754807]	> 30 µM (inactive)	> 30 µM (inactive)	–	–	–	–	–	–	–	–	–	> 30 µM (inactive)	–	–	–
COc1cc2c(Oc3ccc4[nH]c(C)cc4c3F)ncnc2cc1OCCCN1CCCC1 [CEDIRANIB]	> 30 µM (inactive)	> 30 µM (inactive)	> 30 µM (inactive)	–	–	–	–	–	–	–	–	2.61 µM	–	–	–
CC1(COc2ccc3c(c2)ncn3-c2ccc3cccc(N4CCC(N)CC4)c3n2)COC1 [CRENOLANIB]	> 30 µM (inactive)	> 30 µM (inactive)	> 30 µM (inactive)	0.821 µM (active)	1.07 µM (active)	–	> 30 µM (inactive)	> 30 µM (inactive)	> 30 µM (inactive)	–	0.002 µM (active)	> 30 µM (inactive)	> 30 µM (inactive)	0.743 µM (active)	> 30 µM (inactive)
Cn1c(=O)n(-c2ccc(C(C)(C)C#N)cc2)c2c3cc(-c4cnc5ccccc5c4)ccc3ncc21 [DACTOLISIB]	> 30 µM (inactive)	> 30 µM (inactive)	> 30 µM (inactive)	> 30 µM (inactive)	> 30 µM (inactive)	–	–	–	> 30 µM (inactive)	–	> 30 µM (inactive)	> 30 µM (inactive)	> 30 µM (inactive)	> 30 µM (inactive)	–
CNC(=O)c1ccc(Nc2ncc(C(F)(F)F)c(NCc3nccnc3N(C)S(C)(=O)=O)n2)cc1 [DEFACTINIB]	–	> 30 µM (inactive)	> 30 µM (inactive)	> 30 µM (inactive)	> 30 µM (inactive)	1.41 µM (active)	1.46 µM (active)	> 30 µM (inactive)	> 30 µM (inactive)	22 µM (active)	> 30 µM (inactive)	> 30 µM (inactive)	–	4.95 µM (active)	> 30 µM (inactive)
O=S(=O)(c1cccc2cnccc12)N1CCCNCC1 [FASUDIL]	> 30 µM (inactive)	> 30 µM (inactive)	> 30 µM (inactive)	> 30 µM (inactive)	> 30 µM (inactive)	–	–	–	> 30 µM (inactive)	> 30 µM (inactive)	> 30 µM (inactive)	> 30 µM (inactive)	> 30 µM (inactive)	–	–
C[C@]1(O)C[C@@H](c2nc(-c3ccc4ccc(-c5ccccc5)nc4c3)c3c(N)nccn32)C1 [LINSITINIB]	> 30 µM (inactive)	> 30 µM (inactive)	> 30 µM (inactive)	–	> 30 µM (inactive)	–	–	> 30 µM (inactive)	> 30 µM (inactive)	–	> 30 µM (inactive)	> 30 µM (inactive)	> 30 µM (inactive)	–	–
N#CCNC(=O)c1ccc(-c2ccnc(Nc3ccc(N4CCOCC4)cc3)n2)cc1 [MOMELOTINIB]	> 30 µM (inactive)	> 30 µM (inactive)	> 30 µM (inactive)	–	–	> 30 µM (inactive)	> 30 µM (inactive)	> 30 µM (inactive)	> 30 µM (inactive)	> 30 µM (inactive)	0.859 µM (active)	> 30 µM (inactive)	1.28 µM (active)	–	> 30 µM (inactive)
CC1(C)CNc2cc(NC(=O)c3cccnc3NCc3ccncc3)ccc21 [MOTESANIB]	> 30 µM (inactive)	> 30 µM (inactive)	> 30 µM (inactive)	–	–	–	–	–	–	–	–	> 30 µM (inactive)	–	–	–
CN(c1ncccc1CNc1nc(Nc2ccc3c(c2)CC(=O)N3)ncc1C(F)(F)F)S(C)(=O)=O [PF-00562271]	> 30 µM (inactive)	> 30 µM (inactive)	> 30 µM (inactive)	–	3.43 µM (active)	–	0.845 µM (active)	–	> 30 µM (inactive)	–	> 30 µM (inactive)	> 30 µM (inactive)	0.138 µM (active)	–	–
Cn1cnc2c(F)c(Nc3ccc(Br)cc3Cl)c(C(=O)NOCCO)cc21 [SELUMETINIB]	> 30 µM (inactive)	> 30 µM (inactive)	> 30 µM (inactive)	–	–	–	–	–	–	–	–	> 30 µM (inactive)	–	–	–
COc1cc2c(N3CCN(C(=O)Nc4ccc(OC(C)C)cc4)CC3)ncnc2cc1OCCCN1CCCCC1 [TANDUTINIB]	> 30 µM (inactive)	> 30 µM (inactive)	> 30 µM (inactive)	–	–	–	–	–	–	–	–	> 30 µM (inactive)	–	–	–
